Experimental data taken from patent US20240262844A1, “PYRIDINIUM SALTS AND METHODS OF USE” (UNIVERSITY OF WYOMING, priority 2023, published 2024).
Entries after “also recorded” stand apart in the source; their conditions may differ. Structures can show the parent of a compound that is named as a salt.

Key:
HEK293T lysates = assay: Chemoproteomic profiling of HEK293T lysates (protein-level enrichment); format: biochemical, Human
Method: In lysate tryptophan probe treatment for protein-level characterization: HEK293T cell pellets were suspended in native lysis buffer (50 mM HEPES pH 7.5, 150 mM sodium chloride (NaCl), 1.5 mM MgCl2, 1 mM DTT, 0.8% NP-40, 5% glycerol, and 1x protease inhibitors (Thermo)) at 2x the pellet volume. The samples were sonicated on ice for 30 seconds at 20% amplitude with a 2 second pulse ON and 3 second pulse OFF. Cell debris was removed by centrifugation at 20,000×g for 20 minutes at 4° C. Protein concentration was determined by bicinchoninic acid (BCA) (Pierce) and diluted down to 5 mg/mL with ChemProt buffer (50 mM HEPES pH 7.5, 150 mM NaCl, 1.5 mM MgCl2, 1 mM DTT, 0.4% NP-40, and 1x protease inhibitors (Thermo). 5 mg cell lysates were treated with 100x stocks of the tryptophan probes (pyridinium salts 1a, 1b, and 2b) to generate final concentrations (0, 1, 10, and 100 μM) in 1% DMSO. Lysates were incubated for 1 hour at 4° C. followed by photo-activation at respective wavelengths for 20 minutes at 4° C. Excess probe was removed using Sephadex G-25 PD-10 desalting columns (GE Healthcare) pre-equilibrated with 50 mM HEPES pH 7.5, 150 mM NaCl, 1.5 mM MgCl2, and 0.4% NP-40. The samples were then treated with 100 μL Neutravidin resin as a 50% slurry (Peirce). The samples were incubated overnight on a rotating apparatus at R.T. The following day, the beads were transferred to a MobiCol column (Boca Scientific), washed 3× with phosphate buffered saline (PBS) containing 0.2% SDS, washed 3x with PBS, and the enriched proteins were eluted with 2×NuPAGE lithium dodecyl sulfate (LDS) containing 10 mM DTT (Pierce) and heated for 30 minutes at 55° C. The eluent was collected and subsequently treated with 20 mM iodoacetamide (Pierce) for 30 minutes at R.T. protected from light. Samples were passed through detergent removal columns (Pierce) that were pre-equilibrated with 50 mM HEPES pH 8.0. The samples were treated with 2.5 μg Trypsin/LysC (Promega) at 37° C. for 16 hours. The following day, the sample was collected and prepped for isobaric labeling with TMT reagents (Thermo) as specified by the manufacturer.
Quantitative proteomics by two-dimensional nano liquid chromatography-tandem mass spectrometry (nLC-MS/MS): For protein-level characterization, the TMT-labeled sample were reconstituted in 0.1% formic acid (FA)/2% acetonitrile for offline high-pH reversed phase separation (RP10) using a Dionex UltiMate 3000 high-performance liquid chromatography (HPLC) system with fraction collection using Chromeleon v.6.8 (Thermo) software. Separation was achieved on a Waters Xbridge C18 3.5 μm 2.1×150 mm HPLC column (Waters) using a flow rate of 250 μL min-1 and the following ternary gradient and conditions: mobile phase A=water (HPLC grade), mobile phase B=acetonitrile (HPLC grade), and mobile phase C=200 mM ammonium acetate, pH 10. Mobile phase C is held at 10% throughout gradient. Starting conditions are 89% mobile phase A and 1% mobile phase B, ramping mobile phase B to 80% over 65 min. Fractions were collected in 96-well plates at 100 see per well. Fractions were reduced down to 12 fractions, dried, and reconstituted in 0.1% FA/2% acetonitrile for nLC-MS/MS. All data were acquired using a Orbitrap Fusion Lumos coupled to an Easy-nLC 1200 nanoflow liquid chromatograph operating at 300 nL min^−1. Peptides were cleaned up using a 1 cm online custom trap then eluted on a custom 20 cm laser pulled 75 μm column with C18 resin. Peptides were quantified using the synchronous precursor selection (SPS-MS3) or HCD method for TMT quantitation with 120k MS1 resolving power, 50 ms max injection time and 100% AGC. MS2 spectra were selected using the top ten most abundant features with a charge state between 2-6 using CID (collision induced dissociation) in the ion trap. The AGC was set to 100% with an isolation width of 0.7. MS3 was performed on the top 10 most abundant MS2 features between 400-1600 amu with a collision energy of 55%, AGC of 250%, and 50k resolution. […]

[1] = biological target: T1, recombinant NPM1 C-terminal domain (residues 240-294) (Homo sapiens, UniProt P06748); assay: In vitro NPM1 C-terminal domain labeling (Western); format: biochemical
T1 construct: made in house; host or cells: NiCo21(DE3) E. coli
T1 sequence (P06748 240-294): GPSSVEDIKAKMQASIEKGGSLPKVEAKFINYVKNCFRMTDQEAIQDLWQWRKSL
Source text: NPM1 Construct design: NPM1 residues 240-294 corresponding to the C-terminal DNA binding domain were fused to a combined 6×His-maltose binding protein (MBP) solubility tag on the N-terminus. An HRV 3C protease cleavage sequence (LEVLFQ/GP) was placed between the tags and NPM1 sequence and upon cleavage the remaining GP sequence corresponds to the NPM1 240-241 residues resulting in a natural peptide sequence without additional residues.
In vitro NPM1 C-terminal domain labeling and characterization: Labeling of recombinant NPM1 with the pyridinium salt 2b was performed with the following conditions: 10 μM NPM1 was treated with DMSO or 100 μM pyridinium salt 2b (2% DMSO) in 50 mM HEPES pH 7.5, 150 mM NaCl, 1.5 mM MgCl2, and 100 μM glutathione (GSH). Samples were irradiated at 450 nm (Kessil PR160L-440) at 100% intensity for 15 minutes at room temperature or 50° C. The reaction mixture was quenched with the addition of 4X LDS buffer (Invitrogen) containing 10 mM DTT (Pierce) and boiled for 10 minutes before resolving proteins on 4-12% Bis-Tris NuPAGE gels (Invitrogen), transferred onto a Trans-Blot Turbo Mini 0.2 μm nitrocellulose membrane (BioRad), blocked with 5% BSA in tris-buffered saline with Tween-20 (TBST), and incubated with HRP-linked anti-biotin (Cell Signaling Technology, #7075).

In the case of `COc1ccc2cc(-c3cc(C)[n+](N(C)C(=O)OCCCCC[C@H]4SC[C@H]5NC(=O)N[C@H]54)c(C)c3)ccc2c1` (stereo in doubt) [Pyridinium salt 2b, 4-(6-methoxynaphthalen-2-yl)-2,6-dimethyl-1-(methyl(((5-((3aR,4R,6aS)-2-oxohexahydro-1H-thieno[3,4-d]imidazol-4-yl)pentyl)oxy)carbonyl)amino)pyridin-1-ium tetrafluoroborate], the “proteome labeling profile, streptavidin-HRP Western blot of elution profiles” value (HEK293T lysates; 0-100 μM probe, with and without irradiation, before digestion) is reported as “concentration and optically dependent proteome labeling profiles; also recorded: dose-response profiles”, the “number of proteins identified (from ≥2 unique peptides) with ≥2-fold enrichment versus DMSO” value (HEK293T lysates; about 100 μM probe, 60 min incubation, 20 min irradiation (302 nm 1a, 320 nm 1b, 440 nm 2b)) is reported as 523 proteins and the “percentage of unique enriched proteins” value (HEK293T lysates; comparison of proteome coverage of probes 1a, 1b, 2b at 100 μM) is reported as “about 69%”. The “reactivity in the absence of photoirradiation” value (HEK293T lysates; enrichment profiles with and without photoirradiation) was “thermal inertness”, the “labeling of the construct (Western analysis)” value ([1]; 10 μM NPM1, 100 μM probe, 100 μM glutathione, about 440 nm, about 15 minutes) was “photo-dependent labeling” and the “temperature dependence of labeling” value ([1]; labeling at about 50° C. versus room temperature) was “higher level of labeling”.
